PMC9714921 (PLOS Pathogens, 2022)
Several values for one entry are separate records, joined by “and”; a condition that tells them apart may be missing. Equal values may be shown once.

What was measured:
Tzc-ACR-16 = Tzc-ACR-16 (Thelazia callipaeda, UniProt A0A158RD20); test: cell-based; assay type: cell-based
Description: (§1) cRNA for oocyte injection was prepared with the mMESSAGE mMACHINE T7 kit following manufacturers protocol (Ambion, USA). Concentration was determined using a Nanodrop spectrophotometer. Desired subunit combinations with associated accessory proteins were mixed and diluted with nuclease-free water to a final concentration of 250 ng/uL for each construct.
(§2) Adult female X. laevis oocyte extraction was performed in accordance with the McGill University Animal Use Protocol 2015–7758 following standard protocol. Briefly, frog ovary lobes were placed in a Ca^2+-free OR2 solution (82 mM NaCl, 2 mM KCl, 1 mM MgCl2, 5 mM HEPES buffer, pH 7.3) and manually divided into clusters of <10 oocytes with thin tweezers followed by a 90-minute incubation in 10 mg/mL collagenase type II (Sigma-Aldrich, USA). Oocytes were washed in Ca^2+-free OR2 and placed ND96 solution (NaCl 96 mM, KCl 2 mM, CaCl2 1.8 mM, MgCl2 1 mM and HEPES 5 mM, pH 7.3) supplemented with sodium pyruvate 2.5 mM [86] and incubated at 18°C until cRNA injection. Oocytes were injected with 50 nL (12.5 ng of each injected gene) of the desired cRNA subunit and accessory protein combination mix with the NanojectII (Drummond Scientific, USA). Following injection, oocytes were incubated in ND96 buffer at 18°C until electrophysiology. All electrophysiology was conducted two days post-injection, except for the expression analysis assay in which oocytes were measured every day after injection for three consecutive days.
(§3) All drugs were dissolved in recording solution (NaCl 100 mM, KCl 2.5 mM, CaCl2 1 mM, HEPES 5 mM, pH 7.3) to a stock concentration of 10 mM and diluted to their final recording concentrations. Oxantel and bephenium were first dissolved in DMSO to ensure a final recording concentration contained less than 0.1% DMSO. For agonist profiling, all drugs were diluted to a concentration of 100 μM.
(§4) Oocytes were placed individually in an RC3Z chamber (Harvard Apparatus, USA) submerged in recording solution (NaCl 100 mM, KCl 2.5 mM, CaCl2 1 mM, HEPES 5 mM, pH 7.3). The RC3Z chamber was connected to a perfusion system containing recording solution and ligand solutions. Pulled glass capillaries (World Precision Instruments, USA) were filled with 3M KCl and the tips clipped and checked for appropriate resistance (between 0.5 and 5 MΩ). A 3M KCl agar bridge grounded the oocyte bath chamber. Measurements were made using an Axon Axoclamp 900A amplifier with Digidata1550M. […] Ligand solutions were applied to the oocytes with an approximate flow rate of 1.2 m/s and current responses measured. Oocytes were exposed to the ligand solution until a distinct current peak was observed followed by a wash with the recording solution until current returned to baseline for a minimum of 10 seconds until the next ligand exposure. For BAPTA-AM exposed oocytes, oocytes were incubated in 100 μM BAPTA-AM for four hours prior to electrophysiology recording. Data was analyzed using Clampex 9.2 (Axon Instruments, USA) and statistical analysis and graphs produced in Prism (GraphPad version 9.1). T-tests were used to compare responses with error bars representing standard error. For concentration-response curves, individual oocyte current response to the different ligand concentrations were normalized to the response obtained with 300 μM. Data was fit using the Graphpad “log(agonist) vs normalized response–variable slope” equation, with 95% confidence intervals being reported. […] For examples of oocyte responses, recordings were filtered in Clampfit using the lowband pass at 40 Hz cutoff.

Dme-ACR-16 = Dme-ACR-16 (Dracunculus medinensis, UniProt A0A0N4U0T6); test: cell-based; assay type: cell-based
Description: as §1, §2, §3, §4

Asu-ACR-16-REM = test: Voltage-clamp electrophysiology, coding-sequence modified ACR-16 in oocytes; assay type: cell-based, A. suum; conditions: B. malayi ric-3 co-injected; agonist not named in the legend (ACh by the matching native values)
Description: B. malayi acr-16 and accessory proteins ric-3, unc-50, unc-74 and molo-1 were cloned from adult female B. malayi cDNA received as a gift from Dr. T. Geary using the primers described in S1 Table. B. malayi eat-18 was prepared from two overlapping oligonucleotide primers. Other subunits were synthesized from their predicted genome sequence (Gene Universal, USA) (S2 Table). […] All sequences were cloned into the pTD2 oocyte expression vector. Asu-ACR-16 and Tzc-ACR-16 chimeras were constructed using appropriate restriction enzymes, reciprocal exchange through ligation and confirmed by sequencing (McLab, USA).
as §1
Adult female X. laevis oocyte extraction was performed in accordance with the McGill University Animal Use Protocol 2015–7758 following standard protocol. […] All electrophysiology was conducted two days post-injection, except for the expression analysis assay in which oocytes were measured every day after injection for three consecutive days. […]

N. americanus N-AChR = conditions: read-out: EC50 μM ACh; accessory protein Ric-3; ref [33]; cited from earlier work
[1] = No accessory protein, listed as acetylcholine
[2] = co-injected: Bma-ric-3 + Bma-eat-18
[3] = co-injected: Bma-ric-3 + Bma-molo-1
[4] = co-injected: Bma-ric-3 + Bma-unc-50 + Bma-unc-74
[5] = co-injected: Bma-ric-3 + Bma-unc-50 + Bma-unc-74 + Bma-eat-18
[6] = co-injected: Bma-ric-3 + Cel-emc-6
[7] = co-injected: Bma-ric-3 + Cel-nra-2 + Cel-nra-4
[8] = co-injected: Hco-ric-3, listed as acetylcholine

Tzc-ACR-16, sequence (A0A158RD20 entry or part of it): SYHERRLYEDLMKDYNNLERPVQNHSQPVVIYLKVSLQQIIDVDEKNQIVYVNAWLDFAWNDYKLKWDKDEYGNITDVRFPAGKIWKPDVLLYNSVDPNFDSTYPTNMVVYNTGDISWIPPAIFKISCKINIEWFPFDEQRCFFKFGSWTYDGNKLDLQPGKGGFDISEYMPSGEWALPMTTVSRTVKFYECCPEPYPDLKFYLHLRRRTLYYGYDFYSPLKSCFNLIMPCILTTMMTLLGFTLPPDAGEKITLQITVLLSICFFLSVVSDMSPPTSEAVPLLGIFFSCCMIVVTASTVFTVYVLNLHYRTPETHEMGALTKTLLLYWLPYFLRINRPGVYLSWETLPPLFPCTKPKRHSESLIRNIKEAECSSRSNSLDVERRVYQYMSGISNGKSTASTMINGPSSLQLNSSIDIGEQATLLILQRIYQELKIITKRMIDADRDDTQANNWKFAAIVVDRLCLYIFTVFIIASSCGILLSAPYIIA
Dme-ACR-16, sequence (A0A0N4U0T6 entry or part of it): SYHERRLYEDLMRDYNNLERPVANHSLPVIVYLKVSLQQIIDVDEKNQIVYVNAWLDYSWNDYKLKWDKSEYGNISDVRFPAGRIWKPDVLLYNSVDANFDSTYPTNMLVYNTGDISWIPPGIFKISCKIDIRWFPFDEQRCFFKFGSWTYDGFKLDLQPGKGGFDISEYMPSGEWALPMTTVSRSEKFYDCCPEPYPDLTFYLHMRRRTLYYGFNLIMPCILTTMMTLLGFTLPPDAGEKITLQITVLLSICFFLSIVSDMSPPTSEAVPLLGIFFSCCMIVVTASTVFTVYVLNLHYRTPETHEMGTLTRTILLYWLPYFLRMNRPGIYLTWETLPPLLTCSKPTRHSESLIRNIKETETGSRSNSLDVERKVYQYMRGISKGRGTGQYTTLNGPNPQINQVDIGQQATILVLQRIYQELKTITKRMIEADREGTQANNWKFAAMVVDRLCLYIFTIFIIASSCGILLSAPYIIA

With `CC(=O)OCC[N+](C)(C)C` [ACh, acetylcholine] the EC50 (Tzc-ACR-16) was 17.4 µM, the “response to 100 μM acetylcholine normalized to Day 3 response” value (Tzc-ACR-16; Day 1 post-injection) was 7 ± 1% and the “response to 100 μM acetylcholine normalized to Day 3 response” value (Tzc-ACR-16; Day 2 post-injection) was 47 ± 12%. The “current response to 100 μM acetylcholine” value (Tzc-ACR-16; No accessory protein) was 0 ± 0 nA, the “current response to 100 μM acetylcholine” value (Tzc-ACR-16; [1]) was 0 ± 0 (n=15) nA and the “current response to 100 μM acetylcholine” value (Tzc-ACR-16; co-injected: Bma-ric-3 (reference condition)) was 818 ± 112 nA. For the same compound, the “current response to 100 μM acetylcholine” value (Tzc-ACR-16; co-injected: Bma-ric-3 (reference condition), listed as acetylcholine) was 818 ± 112 (n=13) nA, the “current response to 100 μM acetylcholine” value (Tzc-ACR-16; [2]) was 791 ± 119 (n=8) ns nA and the “current response to 100 μM acetylcholine” value (Tzc-ACR-16; [3]) was 660 ± 76 (n=15) ns nA. For the same compound, the “current response to 100 μM acetylcholine” value (Tzc-ACR-16; [4]) was 367 ± 43 nA, the “current response to 100 μM acetylcholine” value (Tzc-ACR-16; [5]) was 964 ± 101 (n=15) ns nA and the “current response to 100 μM acetylcholine” value (Tzc-ACR-16; co-injected: Bma-ric-3 + Bma-unc-50 + Bma-unc-74, listed as acetylcholine) was 367 ± 43 (n=15) nA. The “current response to 100 μM acetylcholine” value (Tzc-ACR-16; [6]) was 720 ± 70 (n=13) ns nA, the “current response to 100 μM acetylcholine” value (Tzc-ACR-16; [7]) was 1263 ± 88 nA and the “current response to 100 μM acetylcholine” value (Tzc-ACR-16; co-injected: Bma-ric-3 + Cel-nra-2 + Cel-nra-4, listed as acetylcholine) was 1263 ± 88 (n=15) nA. The “current response to 100 μM acetylcholine” value (Tzc-ACR-16; co-injected: Hco-ric-3) was 400–600 nA, the “current response to 100 μM acetylcholine” value (Tzc-ACR-16; [8]) was 563 ± 39 nA and 563 ± 39 (n=13) nA and the EC50 (Dme-ACR-16) was 12.8 µM. For the same compound, the “response to 100 μM acetylcholine normalized to Day 3 response” value (Dme-ACR-16; Day 1 post-injection) was 49 ± 7%, the “response to 100 μM acetylcholine normalized to Day 3 response” value (Dme-ACR-16; Day 2 post-injection) was 102 ± 7% and the “current response to 100 μM acetylcholine” value (Dme-ACR-16; No accessory protein) was 1290 ± 70 nA. The “current response to 100 μM acetylcholine” value (Dme-ACR-16; [1]) was 1290 ± 70 (n=17) nA, the “current response to 100 μM acetylcholine” value (Dme-ACR-16; [2]) was 2649 ± 112 (n=11) ns nA and the “current response to 100 μM acetylcholine” value (Dme-ACR-16; [3]) was 2354 ± 108 (n=13) ns nA. For the same compound, the “current response to 100 μM acetylcholine” value (Dme-ACR-16; [4]) was 2368 ± 105 (n=13) ns nA, the “current response to 100 μM acetylcholine” value (Dme-ACR-16; [5]) was 2222 ± 62 (n=15) ns nA and the “current response to 100 μM acetylcholine” value (Dme-ACR-16; [6]) was 2183 ± 87 (n=11) ns nA. For the same compound, the “current response to 100 μM acetylcholine” value (Dme-ACR-16; [7]) was 2425 ± 133 (n=12) ns nA, the “current response to 100 μM acetylcholine” value (Dme-ACR-16; co-injected: Hco-ric-3) was 2000–2200 nA and the “current response to 100 μM acetylcholine” value (Dme-ACR-16; [8]) was 2150 ± 59 nA and 2150 ± 59 (n=15) ns nA. For the same compound, the current response (Asu-ACR-16-REM) was 2197 ± 383 nA and the EC50 (N. americanus N-AChR) was 170 ± 19.2 µM.
